{
  "source": "patent US20190365951A1",
  "about": "“HUMAN CARDIAC TISSUE CONSTRUCT, RELATED METHODS AND USES” (FUNDACIÓ INSTITUTE DE BIOENGINYERIA DE CATALUNYA (IBEC), priority 2018, published 2019)",
  "key": {"CardioSlice constructs [1]": {"tested_on": "CardioSlice constructs", "quoted_text": "All chemicals were dissolved in distilled water to make stock solutions, and serial dilutions were made in RPMI (Invitrogen) culture medium. To test changes in the β-adrenergic response, 1 μM isoproterenol was injected to the bioreactor circuit through the luer injection port (Inycom). For cholinergic stimulation, 10 μM carbachol was injected, and sotalol was added at 10 μM to evaluate the blockade of hERG current (Braam, S. R. et al, 2013). Spontaneous activity of cardiac constructs was recorded as baseline period. Cardiac constructs were treated with pharmacological agents during 10 min for immediate analysis, followed by 5 min washout for isoproterenol and carbachol, and 15 min for sotalol.\nElectrocardiogram (ECG)-like signals were acquired through the three electrodes configuration built in the custom-made cell culture chamber and using an advanced transducer amplifier. The gold electrode acted as internal reference, and electrical activity of cardiac macrotissues was acquired using the gold and graphite electrodes. In particular, “Amplifier I” acquires activity between: “Graphite+ and Reference”; and “Amplifier II” acquires activity between: “Graphite+ and Graphite−” (FIG. 8). The obtained ECG-like signal is generated by the sum of the synchronized action potentials of all cardiomyocytes. Its shape is similar to regular surface ECG signals for humans, including the presence of the QRS complex and T wave (FIG. 4a). […] ECG-like signal recordings were monitored and stored in a computer using the AcqKnowledge software v.4.1 (BIOPAC, Santa Barbara, Calif., USA), and were analyzed with MATLAB (v. R2014b, Natick, Mass., USA). ECG-like signals were recorded at a sampling frequency of 12.5 kHz, and were filtered and decimated at a sampling rate of 500 Hz.\nRecorded ECG-like signals were bandpass filtered (zero-phase fourth-order Butterworth filter with cut-off frequencies of 0.2 and 125 Hz), to use the main bandwidth of the classical electrocardiographic studies. […] Beat-to-beat fiducial points were detected and then signal averaging techniques were applied to estimate the main pattern of each ECG-like signal, enabling analysis and interpretation of QRS complex, T wave and QT interval (FIG. 4a and FIG. 5c).\nDuring the experiments involving drug treatment, instantaneous beat rate expressed as beats per minute (bpm) was calculated over ECG-like signals, generated in both control and CardioSlice constructs at baseline and after drug application. Beat rate was assessed by measuring the RR interval, which is the time elapsing between two consecutive R waves in the electrocardiogram. Relative beat rate to baseline was calculated to evaluate the behavior of cardioactive drug effects."}, "hERG ion channels": {"target": "hERG ion channels (Homo sapiens, UniProt Q12809)", "sequence (Q12809 whole entry)": "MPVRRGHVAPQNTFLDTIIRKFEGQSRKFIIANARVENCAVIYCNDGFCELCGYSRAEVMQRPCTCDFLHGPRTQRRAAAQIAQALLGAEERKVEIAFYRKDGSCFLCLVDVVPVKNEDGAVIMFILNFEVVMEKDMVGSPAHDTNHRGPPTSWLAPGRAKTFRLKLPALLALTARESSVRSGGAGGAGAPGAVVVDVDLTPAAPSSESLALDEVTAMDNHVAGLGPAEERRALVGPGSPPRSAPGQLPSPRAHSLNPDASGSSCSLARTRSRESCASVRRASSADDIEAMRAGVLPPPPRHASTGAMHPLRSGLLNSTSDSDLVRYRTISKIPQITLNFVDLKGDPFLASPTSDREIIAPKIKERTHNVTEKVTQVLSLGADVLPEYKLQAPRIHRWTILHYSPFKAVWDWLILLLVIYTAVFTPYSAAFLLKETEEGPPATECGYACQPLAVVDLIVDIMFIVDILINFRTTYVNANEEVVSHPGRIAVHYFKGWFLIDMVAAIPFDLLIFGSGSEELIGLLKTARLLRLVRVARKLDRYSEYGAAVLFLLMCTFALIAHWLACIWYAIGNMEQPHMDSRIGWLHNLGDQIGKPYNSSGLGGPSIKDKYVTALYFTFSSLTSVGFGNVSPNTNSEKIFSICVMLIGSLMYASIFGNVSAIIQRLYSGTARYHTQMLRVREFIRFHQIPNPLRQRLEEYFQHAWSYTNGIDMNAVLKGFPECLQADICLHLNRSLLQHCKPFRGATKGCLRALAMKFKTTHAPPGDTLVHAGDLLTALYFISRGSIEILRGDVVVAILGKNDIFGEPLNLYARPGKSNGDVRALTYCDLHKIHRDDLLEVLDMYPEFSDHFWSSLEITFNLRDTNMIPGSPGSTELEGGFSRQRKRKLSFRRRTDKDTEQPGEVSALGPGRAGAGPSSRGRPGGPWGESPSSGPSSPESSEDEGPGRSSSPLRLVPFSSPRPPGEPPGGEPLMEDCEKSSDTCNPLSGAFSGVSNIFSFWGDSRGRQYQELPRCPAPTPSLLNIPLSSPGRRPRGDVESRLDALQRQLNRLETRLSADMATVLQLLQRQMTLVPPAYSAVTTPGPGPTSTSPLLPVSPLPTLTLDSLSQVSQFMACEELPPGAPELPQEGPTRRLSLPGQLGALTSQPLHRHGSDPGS", "conditions": "HEK293, CHO; Mathur, A. et al, 2015; cited from earlier work"}, "CardioSlice constructs [2]": {"tested_on": "CardioSlice constructs", "test": "Chronotropic/contractile response by video area-oscillation analysis (custom MATLAB program)", "format": "cell-based, human", "procedure": "FIG. 11. Chronotropic responses of human cardiac macrotissues to the proarrhythmic drug sotalol. Changes in the beat rate were analyzed through custom MATLAB program at different incubation times (from 0 min to 40 min). The area in pixels of each construct was obtained, and its oscillation was represented over time (relative to the highest number of pixels recorded). (a) Sotalol effects on non-stimulated cardiac constructs (Control). (b) Sotalol effects on electrically stimulated cardiac constructs (CardioSlice).\nContractile function of cardiac macrotissues in spontaneous beating and in response to electric field stimulation was assessed in a set-up equivalent to one previously described (Tandon, N. et al, 2009; Tandon, N. et al, 2011). […] The space between the electrodes was filled with Tyrode's salts solution (Sigma-Aldrich Quimica), and cardiac macrotissues were imaged and video recorded using a Stereo Microscope Leica MZ10F (Leica Microsystems) with a DFC4025C Digital Microscope Camera (Leica Microsystems). […] To measure the amplitude of contraction of each cardiac macrotissue, spontaneous beating of the constructs was recorded for at least 10 s. Then, the Fractional Area Change (FAC) of 10 beats was calculated using a custom MATLAB program (v. R2014b, Natick, Mass., USA) as previously described (Tandon, N. et al., 2009). […]"}, "[3]": {"tested_on": "Control constructs (non-stimulated human cardiac macrotissues)", "test": "ECG-like signal recording of non-stimulated human cardiac macrotissues under drug treatment", "format": "cell-based", "conditions": "10 μM sotalol, 10 min treatment, day 14 of culture", "description": "Isoproterenol, carbachol and sotalol were purchased from Sigma-Aldrich."}},
  "data": [
    {"compound": "C[N+](C)(C)CCOC(N)=O", "note": "[carbachol]", "values": [
      {"measurement": "beating frequency", "setting": "CardioSlice constructs [1]; 10 μM carbachol, 10 min incubation, relative to baseline", "result": "statistically significant decrease"}
    ]},
    {"compound": "COc1cc2nc(N(C)CCCNC(=O)C3CCCO3)nc(N)c2cc1OC", "note": "(stereo not drawn) [alfuzosin]", "values": [
      {"measurement": "outcome of hERG safety assay versus actual cardiac safety", "setting": "hERG ion channels", "result": "false negatives"}
    ]},
    {"compound": "CC(C)NCC(O)c1ccc(O)c(O)c1", "note": "(stereo not drawn) [isoproterenol]", "values": [
      {"measurement": "RR intervals", "setting": "CardioSlice constructs [1]; 1 μM isoproterenol, 10 min incubation", "result": "decreased"},
      {"measurement": "beating rate", "setting": "CardioSlice constructs [1]; 1 μM isoproterenol, 10 min incubation, relative to baseline", "result": "statistically significant increment"}
    ]},
    {"compound": "CC(C)NCC(O)c1ccc(NS(C)(=O)=O)cc1", "note": "(stereo not drawn) [sotalol]", "values": [
      {"measurement": "chronotropic response (beat rate changes)", "setting": "CardioSlice constructs [2]; sotalol, incubation times from 0 min to 40 min", "result": "a negative chronotropic effect can be observed, followed by a progressive emergence of cardiac arrhythmias"},
      {"measurement": "contractile patterns (mechanical level)", "setting": "CardioSlice constructs [2]; sotalol-treated CardioSlice constructs", "result": "dyssynchronous contractile patterns"},
      {"measurement": "increase of the QT interval (prolongation)", "setting": "CardioSlice constructs [1]; human, 10 μM", "result": "greater than 20%"},
      {"measurement": "beating frequency", "setting": "[3]", "result": "random increases and decreases"},
      {"measurement": "morphology of ECG-like signals", "setting": "[3]", "result": "no alteration"}
    ]}
  ]
}
